Values after ≈ are worked out from the molar mass of the structure shown.
How the values were obtained:
[1] = test system: Mycobacterium tuberculosis; test: Antimycobacterial activity against Mycobacterium tuberculosis; type: functional
[2] = test system: Mycobacterium tuberculosis; test: Antimycobacterial activity against Mycobacterium tuberculosis H37Rv; type: functional; settings: for MIC: Mycobacterium tuberculosis, H37Rv
[3] = test system: Mycobacterium tuberculosis; test: Growth inhibition of Mycobacterium tuberculosis H37Rv at 100 ug/ml relative to control; type: functional; settings: read-out: GI
[4] = test system: Mycobacterium tuberculosis; test: Antimycobacterial activity against non-replicating Mycobacterium tuberculosis; type: functional
[5] = test system: Mycobacterium tuberculosis; test: Antimycobacterial activity against Mycobacterium tuberculosis H37Rv ATCC 27294 by MABA; type: functional
[6] = Selectivity index, ratio of IC50 for African green monkey Vero cells to MIC for Mycobacterium tuberculosis H37Rv ATCC 27294; type: toxicity; settings: read-out: Selectivity Index
[7] = test system: Mycobacterium tuberculosis; test: Antimycobacterial activity against replicating Mycobacterium tuberculosis; type: functional
[8] = Inhibition of Mycobacterium tuberculosis IMPDH
[9] = test system: Mycolicibacterium smegmatis; test: Antimycobacterial activity against Mycobacterium smegmatis; type: functional
[10] = test system: Mycolicibacterium fortuitum; test: Antimycobacterial activity against Mycobacterium fortuitum; type: functional
[11] = test system: Mycobacterium tuberculosis; test: Antimycobacterial activity against Mycobacterium tuberculosis ATCC 27294; type: functional
[12] = test system: Mycobacterium tuberculosis; test: Antimycobacterial activity against Mycobacterium tuberculosis ATCC 35828; type: functional
[13] = test system: Mycobacterium tuberculosis; test: Antimycobacterial activity against Mycobacterium tuberculosis ATCC 35820; type: functional
[14] = test system: Mycobacterium tuberculosis; test: Antimycobacterial activity against Mycobacterium tuberculosis ATCC 35822; type: functional
[15] = test system: Mycobacterium tuberculosis; test: Antimycobacterial activity against Mycobacterium tuberculosis ATCC 35837; type: functional
[16] = test system: Mycobacterium tuberculosis; test: Antimycobacterial activity against Mycobacterium tuberculosis H37Rv in logarithmic phase; type: functional
[17] = test system: Mycobacterium tuberculosis; test: Antimycobacterial activity against Mycobacterium tuberculosis H37Rv in hypoxia-induced latent phase; type: functional
[18] = test system: Mycobacterium tuberculosis; test: Antimycobacterial activity against Mycobacterium tuberculosis H37Rv ATCC 27294 by serial dilution assay; type: functional
[19] = test system: Mycobacterium tuberculosis; test: Potency index, ratio of pyrazinamide MIC to compound MIC for Mycobacterium tuberculosis H37Rv; type: functional
[20] = test system: Mycobacterium tuberculosis; test: Potency index, ratio of streptomycin MIC to compound MIC for Mycobacterium tuberculosis H37Rv; type: functional
[21] = test system: Mycobacterium tuberculosis; test: Potency index, ratio of isoniazid MIC to compound MIC for Mycobacterium tuberculosis H37Rv; type: functional
[22] = test system: Mycobacterium tuberculosis; test: Potency index, ratio of ciprofloxacin MIC to compound MIC for Mycobacterium tuberculosis H37Rv; type: functional
HEK293 = test: Cytotoxicity against HEK293 cells after 24 hrs by MTT assay; type: cell-based; settings: Homo sapiens, HEK293, 24 h
[23] = test system: Mycobacterium tuberculosis; test: Antimycobacterial activity against Mycobacterium tuberculosis H37Rv after 5 days by MABA; type: functional; settings: 120 h

O=C1/C(=C\c2ccc(Br)cc2)SC(c2ccc(-n3ccnc3)cc2)N1Nc1ccccc1 (stereo unspecified)
MIC [1]: 14.3 to 49.7 µM (≈ 7.18 to 25 µg/mL)

Fc1cc2nc(Cn3ccnc3)[nH]c2cc1-n1ccnc1
MIC [2]: 12.5 to 100 µg/mL (≈ 44.3 to 354 µM)

Cc1ccc2c(c1)cc(-c1nc(-c3ccccc3)c(-c3ccccc3)n1-c1ccccc1)c1nnnn12
inhibition of growth at 100 µg/mL [3]: 17 to 99%

COc1ccc(-n2c(-c3cc4ccccc4n4nnnc34)nc(-c3ccccc3)c2-c2ccccc2)cc1
inhibition of growth at 100 µg/mL [3]: 17 to 99%

CCc1nc2ccc(C)cc2n1CCCNc1ccc(C)cc1
MIC [4]: 0.056 to 0.88 µM

Cc1ccc(-n2c(-c3cc4cc(C)ccc4n4nnnc34)nc(-c3ccccc3)c2-c2ccccc2)cc1
inhibition of growth at 100 µg/mL [3]: 17 to 99%

CS(=O)(=O)c1nnc(-c2ncc([N+](=O)[O-])[nH]2)s1
MIC [5]: > 6.25 µg/mL | selectivity ratio [6]: 0.3 to 0.6

CCCc1cc(=O)oc2c1c(OC)cc1[nH]c(C(=O)N(C)C)[n+]([O-])c12
MIC [7]: > 50 µg/mL | MIC [4]: > 50 µg/mL

COc1ccc(NC(=O)Cn2c(-c3cscn3)nc3ccccc32)c(OC)c1
IC50 [8]: 3 to 10 µM

C[S+]([O-])c1nnc(-c2ncc([N+](=O)[O-])[nH]2)s1 (stereo unspecified)
MIC [5]: 1.56 µg/mL (≈ 6.02 µM) | selectivity ratio [6]: 0.3 to 0.6

CCc1nc2ccc(C)cc2n1CCCNc1ccc(C)cc1C
MIC [4]: 0.056 to 0.88 µM

Clc1ccc(-n2ncc(C(c3ccccc3)n3ccnc3)c2-c2ccccc2Cl)c(Cl)c1 (stereo unspecified)
MIC [9]: 6.7 to 57.7 µM (≈ 3.21 to 27.7 µg/mL) | MIC [10]: 6.7 to 57.7 µM (≈ 3.21 to 27.7 µg/mL) | MIC [11]: 6.7 to 57.7 µM (≈ 3.21 to 27.7 µg/mL) | MIC [12]: 6.7 to 57.7 µM (≈ 3.21 to 27.7 µg/mL) | MIC [13]: 6.7 to 57.7 µM (≈ 3.21 to 27.7 µg/mL) | MIC [14]: 6.7 to 57.7 µM (≈ 3.21 to 27.7 µg/mL) | MIC [15]: 6.7 to 57.7 µM (≈ 3.21 to 27.7 µg/mL)

COc1ccc(-c2nc3ccc(-c4ccc5nc(-c6ccccc6)[nH]c5c4)cc3[nH]2)cc1
MIC [16]: 0.25 to 1 µg/mL (≈ 0.6 to 2.4 µM) | MIC [17]: 0.25 to 1 µg/mL (≈ 0.6 to 2.4 µM)

CCc1nc2ccc(C)cc2n1CCCNc1ccc(OC)cc1
MIC [4]: 0.056 to 0.88 µM

COc1ccc(-n2c(-c3cc4cc(C)ccc4n4nnnc34)nc(-c3ccccc3)c2-c2ccccc2)cc1
inhibition of growth at 100 µg/mL [3]: 17 to 99%

O=C(Cn1c(-c2cscn2)nc2ccccc21)Nc1ccc([N+](=O)[O-])cc1
IC50 [8]: 3 to 10 µM

Fc1cc2nc(Cn3ccnc3)[nH]c2cc1Oc1ccc(Cl)cc1
MIC [2]: 12.5 to 100 µg/mL (≈ 36.5 to 292 µM)

CCc1nc2ccc(C)cc2n1CCCNc1ccccc1
MIC [4]: 0.056 µM

CCCOc1cccc(NC(=O)Cn2c(-c3cscn3)nc3ccccc32)c1
IC50 [8]: 3 to 10 µM

CCCSc1nnc(-c2ncc([N+](=O)[O-])n2C)s1
MIC [18]: 3.12 µg/mL (≈ 10.9 µM)

CCc1nc2ccc(C)cc2n1CCCSc1ccc(OC)cc1
MIC [4]: 0.056 to 0.88 µM

CCc1nc2ccc(C)cc2n1CCCCSc1ccccc1
MIC [4]: 0.056 to 2.6 µM

CCC[S+]([O-])c1nnc(-c2ncc([N+](=O)[O-])[nH]2)s1 (stereo unspecified)
MIC [5]: 1.56 µg/mL (≈ 5.43 µM) | selectivity ratio [6]: 0.3 to 0.6

CSc1nnc(-c2ncc([N+](=O)[O-])[nH]2)s1
MIC [5]: 3.13 to 6.25 µg/mL (≈ 12.9 to 25.7 µM)

COc1ccc2c(c1)cc(-c1nc(-c3ccccc3)c(-c3ccccc3)n1-c1ccccc1)c1nnnn12
inhibition of growth at 100 µg/mL [3]: 17 to 99%

Cc1ccc(/C=C2/SC(c3ccc(-n4ccnc4)cc3)N(Nc3ccccc3)C2=O)cc1 (stereo unspecified)
MIC [1]: 14.3 to 49.7 µM (≈ 6.26 to 21.8 µg/mL)

CCc1nc2ccc(C)cc2n1CCCCNc1cccc(Cl)c1
MIC [4]: 0.056 to 2.6 µM

CCCc1cc(=O)oc2c1c(OCCN1CCOCC1)cc1[nH]c(C(=O)N(C)C)[n+]([O-])c12
MIC [7]: > 50 µg/mL | MIC [4]: > 50 µg/mL

O=C(Cn1c(-c2cscn2)nc2ccccc21)Nc1ccccc1
IC50 [8]: 3 to 10 µM

CCc1nc2ccc(C)cc2n1CCCCSc1ccc(OC)cc1
MIC [4]: 0.056 to 2.6 µM

Fc1cc2nc(Cn3ccnc3)[nH]c2cc1Cl
MIC [2]: 12.5 to 100 µg/mL (≈ 49.9 to 399 µM)

CCOc1ccc(-c2nc3ccc(-c4ccc5nc(-c6ccc(OCC)cc6)[nH]c5c4)cc3[nH]2)cc1
MIC [16]: 0.5 to 16 µg/mL (≈ 1.05 to 33.7 µM) | MIC [17]: 0.5 to 16 µg/mL (≈ 1.05 to 33.7 µM)

Cn1c(-c2cccc(Cl)c2F)nc2cc(-c3nc(-c4ccc(Cl)cc4)no3)ccc21
Ratio [19]: 2 | Ratio [20]: 4 | Ratio [21]: 4 | Ratio [22]: 2 | IC50 (HEK293): > 500 µg/mL | MIC [23]: 1.6 to 25 µg/mL (≈ 3.64 to 56.9 µM)

Nc1ccc(-c2nc3cc(-c4ccc5[nH]c(-c6ccc(N)cc6)nc5c4)ccc3[nH]2)cc1
MIC [16]: 0.5 to 16 µg/mL (≈ 1.2 to 38.4 µM) | MIC [17]: 0.5 to 16 µg/mL (≈ 1.2 to 38.4 µM)

O=C(O)c1cn(C2CC2)c2cc(N3CCNCC3)c(F)cc2c1=O [CIPROFLOXACIN]
MIC [23]: 3.12 µg/mL (≈ 9.43 µM)

NNC(=O)c1ccncc1 [ISONIAZID]
MIC [2]: 0.2 µg/mL (≈ 1.46 µM) | MIC [23]: 6.25 µg/mL (≈ 45.6 µM)

NC(=O)c1cnccn1 [PYRAZINAMIDE]
MIC [23]: 3.12 µg/mL (≈ 25.4 µM)

CO[C@H]1/C=C/O[C@@]2(C)Oc3c(C)c(O)c4c(O)c(c(/C=N/N5CCN(C)CC5)c(O)c4c3C2=O)NC(=O)/C(C)=C\C=C\[C@H](C)[C@H](O)[C@@H](C)[C@@H](O)[C@@H](C)[C@H](OC(C)=O)[C@@H]1C [RIFAMPIN]
MIC [18]: 0.125 to 0.25 µg/mL (≈ 0.152 to 0.304 µM) | MIC98 [2]: 40 µg/mL (≈ 48.6 µM)

CN[C@@H]1[C@H](O[C@H]2[C@H](O[C@H]3[C@H](O)[C@@H](O)[C@H](N=C(N)N)[C@@H](O)[C@@H]3N=C(N)N)O[C@@H](C)[C@]2(O)C=O)O[C@@H](CO)[C@H](O)[C@H]1O [STREPTOMYCIN]
MIC [2]: 0.7 µg/mL (≈ 1.2 µM) | MIC [23]: 6.25 µg/mL (≈ 10.7 µM)

Source: ChEMBL document CHEMBL4196086, “Recent advances of imidazole-containing derivatives as anti-tubercular agents” (Eur J Med Chem, 2018)
